In patent US8822430B2 (Gilead Sciences, Inc., priority 2009, dated 2014):

System: HCV 1b RLuc cells (dicistronic genotype 1b Con1 replicon)
Test: Renilla luciferase (RLuc)-based HCV replicon reporter assay
Format: cell-based, HCV genotype 1b
Settings: Hepatitis C virus, 72 h, HCV 1b RLuc replicon, 72 hours; read-out: Activity (antiviral potency [EC50])
Method: Antiviral potency (EC50) was determined using a Renilla luciferase (RLuc)-based HCV replicon reporter assay. To perform the assay, HCV 1b RLuc cells (harboring a dicistronic genotype 1b Con1 replicon that encodes a RLuc reporter), or HCV 1a RLuc cells (harboring a dicistronic genotype 1a H77 replicon that encodes a RLuc reporter), were dispensed into 384-well plates. Compounds were re-suspended in DMSO at a concentration of 10 mM and serially diluted in DMSO using an automated pipeting instrument. Serially diluted compounds were mixed with cell culture media and added to the seeded cells. DMSO was used as a negative (solvent) control, and the protease inhibitor ITMN-191 was included at a concentration >100×EC50 as a positive control. 72 hours later, cells were lysed and Renilla luciferase activity quantified as recommended by the manufacturer (Promega-Madison, Wis.). Non-linear regression was performed to calculate EC50 values.
Biological data (antiviral potency [EC50] was determined using a Renilla luciferase (RLuc)-based HCV replicon reporter assay—HCV 1b RLuc) for representative compounds of the invention is provided in the following table. These compounds can be prepared using procedures similar to those described above.

**Q.** Which EC50 does the source give for `COC(=O)N[C@H](C(=O)N1CCC[C@H]1c1ncc(-c2ccc(C#Cc3ccc(-c4cnc([C@@H]5CN(C(=O)OC)CN5C(=O)[C@@H](NC(=O)OC)C(C)C)[nH]4)cc3)cc2)[nH]1)C(C)C` here?
**A.** 18.7 pM

**Q.** `COC(=O)N[C@H](C(=O)N1CC2(CC2)C[C@H]1c1ncc(-c2ccc(-c3ccc4cc(-c5cnc([C@@H]6C[C@H](C#N)CN6C(=O)[C@@H](NC(=O)OC)C(C)(C)C)[nH]5)ccc4c3)cc2)[nH]1)C(C)C` was tested. Which EC50 did it give?
**A.** 16.5 pM

**Q.** Which EC50 does the source give for `COC(=O)N[C@H](C(=O)N1CC2(CC2)C[C@H]1c1ncc(-c2ccc3cc(-c4ccc(-c5cnc([C@@H]6SCCN6C(=O)[C@@H](NC(=O)OC)C(C)C)[nH]5)cc4)ccc3c2)[nH]1)C(C)C` here?
**A.** 19.2 pM

**Q.** How did the EC50 turn out when `COC(=O)N[C@H](C(=O)N1CCC[C@H]1c1ncc(-c2ccc(-c3ccc(-c4cnc([C@@H]5CC[C@@H]6CC[C@H](NC(=O)OC(C)(C)C)C(=O)N65)[nH]4)cc3)cc2)[nH]1)C(C)C` was run?
**A.** 325 pM

**Q.** How did the EC50 turn out when `COC(=O)N[C@H](C(=O)N1CCC[C@H]1c1ncc(-c2ccc3cc(-c4ccc(-c5cnc([C@@H]6CCCN6C(=O)[C@H](OC)c6ccccc6)[nH]5)cc4)ccc3c2)[nH]1)C(C)C` was run?
**A.** 16.3 pM

**Q.** With `COC(=O)N[C@H](C(=O)N1CCC[C@H]1c1ncc(C#Cc2ccc3cc(-c4cnc([C@@H]5CCCN5C(=O)[C@@H](NC(=O)OC)C(C)C)[nH]4)ccc3c2)[nH]1)C(C)C` as the molecule, how does the EC50 read?
**A.** 10.6 pM

**Q.** With `COC(=O)N[C@H](C(=O)N1CCC[C@H]1c1nc2ccc(-c3ccc(-c4cnc([C@@H]5[C@H]6CC[C@H](C6)N5C(=O)[C@@H](NC(=O)OC)C(C)C)[nH]4)cc3)cc2[nH]1)C(C)C` as the molecule, how does the EC50 read?
**A.** 55.3 pM

**Q.** How did the EC50 turn out when `CC[C@H](C)[C@H](NC(=O)OC)C(=O)N1CCC[C@H]1c1ncc(C#Cc2ccc3cc(-c4cnc([C@@H]5CCCN5C(=O)[C@@H](NC(=O)OC)[C@@H](C)CC)[nH]4)ccc3c2)[nH]1` was run?
**A.** 14.7 pM

**Q.** How did the EC50 turn out when `COC(=O)N[C@H](C(=O)NC1(c2ncc(-c3ccc(-c4ccc(-c5cnc([C@@H]6CCCN6C(=O)[C@@H](NC(=O)OC)C(C)C)[nH]5)cc4)cc3)[nH]2)CC1)C(C)C` was run?
**A.** 86.5 pM

**Q.** With `COC(=O)N[C@H](C(=O)N1CCC[C@H]1c1ncc(-c2ccc(C#Cc3ccc(-c4cnc([C@@H]5CN(CC(F)(F)F)CCN5C(=O)[C@@H](NC(=O)OC)C(C)C)[nH]4)cc3)cc2)[nH]1)C(C)C` as the molecule, how does the EC50 read?
**A.** 1510 pM

**Q.** For `COC(=O)N[C@H](C(=O)N1CCC[C@H]1c1ncc(-c2ccc(-c3ccc(-c4cnc([C@@H]5CN(S(=O)(=O)c6ccccc6)CN5C(=O)[C@@H](NC(=O)OC)C(C)C)[nH]4)cc3)cc2)[nH]1)C(C)C`, which EC50 is on record?
**A.** 78.8 pM

**Q.** With `COC(=O)N[C@H](C(=O)N1CCC[C@H]1c1ncc(-c2ccc3cc(-c4ccc(-c5cnc([C@@H]6CCCN6C(=O)[C@@H](NC(=O)OC)C6Cc7ccccc7C6)[nH]5)cc4)ccc3c2)[nH]1)C(C)C` as the molecule, how does the EC50 read?
**A.** 10.4 pM

**Q.** Which EC50 does the source give for `COC(=O)N[C@H](C(=O)N1CCC[C@H]1c1ncc(-c2ccc(-c3ccc(-c4cnc([C@@H]5CCCN5C(=O)[C@@H](NC(=O)OC)C(C)C)[nH]4)s3)cc2)[nH]1)C(C)C` here?
**A.** 8.1 pM

**Q.** `COC(=O)N[C@H](C(=O)N1CCC[C@H]1c1ncc(-c2ccc3cc(-c4ccc(-c5cnc([C@@H]6CCCN6C(=O)[C@@H](NC(=O)OC)C(C)C)[nH]5)cc4)ccc3c2)[nH]1)c1ccccc1` was tested. Which EC50 did it give?
**A.** 30.5 pM

**Q.** For `COC(=O)N[C@H](C(=O)N1OC2(CCC2)C[C@H]1c1ncc(-c2ccc(-c3ccc(-c4cnc([C@@H]5CC6(CCC6)ON5C(=O)[C@@H](NC(=O)OC)C(C)C)[nH]4)cc3)cc2)[nH]1)C(C)C`, which EC50 is on record?
**A.** 5.4 pM

**Q.** Which EC50 does the source give for `COC(=O)N[C@H](C(=O)N1[C@@H]2CC[C@@H](C2)[C@H]1c1ncc(-c2ccc(-c3ccc(-c4cnc([C@@H]5[C@H]6CC[C@H](C6)N5C(=O)[C@@H](NC(=O)OC)C(C)C)[nH]4)cc3)cc2)[nH]1)C(C)C` here?
**A.** 10 pM

**Q.** Which EC50 does the source give for `COC(=O)N[C@H](C(=O)N1CCC[C@H]1c1ncc(-c2ccc(-c3ccc(-c4ccc(-c5cnc([C@@H]6CCCN6C(=O)[C@@H](NC(=O)OC)C(C)C)[nH]5)cc4)cc3)cc2)[nH]1)C(C)C` here?
**A.** 24 pM

**Q.** How did the EC50 turn out when `COC(=O)NC(C(=O)N1CCC[C@H]1c1ncc(-c2cc3c(OC)c4sc(-c5cnc([C@@H]6CCCN6C(=O)C(NC(=O)OC)c6ccccc6)[nH]5)cc4c(OC)c3s2)[nH]1)c1ccccc1` (some centres unmarked) was run?
**A.** 26.2 pM

**Q.** `COC(=O)NC(C(=O)N1CCC[C@H]1c1ncc(-c2ccc(-c3ccc4cc(-c5cnc([C@@H]6CCCN6C(=O)[C@@H](NC(=O)OC)C(C)C)[nH]5)ccc4c3)cc2)[nH]1)c1ccccc1C` (some centres unmarked) was tested. Which EC50 did it give?
**A.** 11.7 pM

**Q.** Which EC50 does the source give for `COC(=O)N[C@H](C(=O)N1CCC[C@H]1c1ncc(-c2ccc(-c3ccn(-c4cnc([C@@H]5CCCN5C(=O)[C@@H](NC(=O)OC)C(C)C)[nH]4)c(=O)c3)cc2)[nH]1)C(C)C` here?
**A.** 15900 pM

**Q.** With `COC(=O)N[C@H](C(=O)N1CCC[C@H]1c1ncc(-c2ccc(N3CCC(c4cnc([C@@H]5CCCN5C(=O)[C@@H](NC(=O)OC)C(C)C)[nH]4)CC3)cc2)[nH]1)C(C)C` as the molecule, how does the EC50 read?
**A.** 456 pM

**Q.** How did the EC50 turn out when `COC(=O)N[C@H](C(=O)N1CCC[C@H]1c1nc(-c2ccc3c(c2)C(F)(F)c2cc(-c4cnc([C@@H]5CC6(CC6)CN5C(=O)[C@@H](NC(=O)OC)C(C)C)[nH]4)ccc2-3)c[nH]1)C(C)C` was run?
**A.** 12.5 pM

**Q.** With `COC(=O)N[C@H](C(=O)N1CCC[C@H]1c1ncc(-c2ccc(-c3ccc(-c4cnc(CN5CCC[C@@H](NC(=O)OC)C5=O)[nH]4)cc3)cc2)[nH]1)C(C)C` as the molecule, how does the EC50 read?
**A.** 240 pM

**Q.** How did the EC50 turn out when `COC(=O)N[C@H](C(=O)N1CCC[C@H]1c1ncc(-c2ccc3cc(-c4ccc(-c5cnc([C@@H]6CCCN6C(=O)[C@H](NC(=O)OC)c6cccs6)[nH]5)cc4)ccc3c2)[nH]1)C(C)C` was run?
**A.** 26.2 pM

**Q.** `COC(=O)N[C@H](C(=O)N1CCC[C@H]1c1ncc(-c2ccc3cc(-c4ccc(-c5cnc([C@@H]6CCCN6C(=O)[C@H](NC(=O)OC)c6ccccc6)[nH]5)cc4)ccc3c2)[nH]1)C(C)C` was tested. Which EC50 did it give?
**A.** 8.1 pM

**Q.** How did the EC50 turn out when `COC(=O)N[C@H]1CCCN(Cc2ncc(-c3ccc(-c4ccc(-c5cnc([C@@H]6CCCN6C(=O)[C@@H](NC(=O)OC)C(C)C)[nH]5)cc4)cc3)[nH]2)C1=O` was run?
**A.** 147 pM

**Q.** How did the EC50 turn out when `COC(=O)N[C@H](C(=O)N1CCC[C@H]1C(=O)Nc1ccc(-c2ccc(-c3cnc([C@@H]4CCCN4C(=O)[C@@H](NC(=O)OC)C(C)C)[nH]3)cc2)cc1)C(C)C` was run?
**A.** 124 pM

**Q.** With `COC(=O)N[C@H](C(=O)N1CCC[C@H]1c1ncc(-c2ccc(-c3ccc4cc(-c5cnc([C@@H]6CCCN6C(=O)[C@@H](NC(=O)OC)C6CCOCC6)[nH]5)ccc4c3)cc2)[nH]1)C1CCOCC1` as the molecule, how does the EC50 read?
**A.** 68.6 pM

**Q.** With `COC(=O)N[C@H](C(=O)N1CCC[C@H]1c1ncc(-c2ccc3cc(-c4ccc(-c5cnc([C@@H]6C[C@@H](Cc7ccccc7)CN6C(=O)[C@@H](NC(=O)OC)C(C)C)[nH]5)cc4)ccc3c2)[nH]1)C(C)C` as the molecule, how does the EC50 read?
**A.** 14 pM

**Q.** How did the EC50 turn out when `COC(=O)N[C@H](C(=O)N1C[C@@H](C#N)C[C@H]1c1ncc(-c2ccc(C#Cc3ccc(-c4cnc([C@@H]5CC(F)(F)CN5C(=O)[C@@H](NC(=O)OC)C(C)C)[nH]4)cc3)cc2)[nH]1)C(C)C` was run?
**A.** 18 pM

**Q.** How did the EC50 turn out when `COC(=O)N[C@H](C(=O)N1CCC[C@H]1c1ncc(-c2ccc(-c3ccc(-c4cnc([C@@H]5CC6(CN5C(=O)[C@@H](NC(=O)OC)C(C)C)OCCO6)[nH]4)cc3)cc2)[nH]1)C(C)C` was run?
**A.** 55.5 pM

**Q.** For `CNC(=O)O[C@H](C(=O)N1CCC[C@H]1c1ncc(-c2ccc(C#Cc3ccc(-c4cnc([C@@H]5CCCN5C(=O)[C@@H](NC(=O)OC)C(C)C)[nH]4)cc3)cc2)[nH]1)C(C)C`, which EC50 is on record?
**A.** 127 pM

**Q.** For `COC(=O)N[C@H](C(=O)N[C@@H](CO)c1ncc(-c2ccc(-c3ccc(-c4cnc([C@@H]5CCCN5C(=O)[C@@H](NC(=O)OC)C(C)C)[nH]4)cc3)cc2)[nH]1)C(C)C`, which EC50 is on record?
**A.** 77.5 pM

**Q.** For `COC(=O)N[C@H](C(=O)N1CCC[C@H]1c1ncc(-c2ccc(-c3ccc(-c4cnc([C@@H]5SCCN5C(=O)[C@@H](NC(=O)OC)C(C)C)[nH]4)cc3)cc2)[nH]1)C(C)C`, which EC50 is on record?
**A.** 17.1 pM

**Q.** How did the EC50 turn out when `COC(=O)N[C@H](C(=O)N1CCC[C@H]1c1ncc(-c2ccc(C#Cc3ccc(-c4cnc([C@@H]5CC(F)(F)CN5C(=O)[C@@H](NC(=O)OC)C(C)C)[nH]4)cc3)cc2)[nH]1)C(C)C` was run?
**A.** 9.1 pM

**Q.** Which EC50 does the source give for `COC(=O)N[C@@H](C)C(=O)N1[C@@H]2CC[C@@H](C2)[C@H]1c1ncc(-c2ccc(-c3ccc4cc(-c5cnc([C@@H]6CC7(CC7)CN6C(=O)[C@@H](NC(=O)OC)C(C)C)[nH]5)ccc4c3)cc2)[nH]1` here?
**A.** 15.6 pM

**Q.** Which EC50 does the source give for `COC(=O)N[C@H](C(=O)N1[C@@H]2CC[C@@H](C2)[C@H]1c1ncc(-c2ccc(-c3ccc4cc(-c5cnc([C@@H]6CC7(CC7)CN6C(=O)[C@H](NC(=O)OC)c6ccccc6)[nH]5)ccc4c3)cc2)[nH]1)C(C)C` here?
**A.** 39.4 pM

**Q.** `COC(=O)N[C@H](C(=O)N1CC2(CC2)C[C@H]1c1ncc(-c2ccc3cc(-c4ccc(-c5cnc([C@@H]6[C@H]7CC[C@H](C7)N6C(=O)[C@@H](NC(=O)OC)C(C)(C)OC)[nH]5)cc4)ccc3c2)[nH]1)C(C)C` was tested. Which EC50 did it give?
**A.** 14.5 pM

**Q.** How did the EC50 turn out when `COC(=O)N[C@H](C(=O)N1CCC[C@H]1c1ncc(-c2cc3c(OC)c4sc(-c5cnc([C@@H]6CCCN6C(=O)[C@@H](NC(=O)OC)C6CCOCC6)[nH]5)cc4c(OC)c3s2)[nH]1)C1CCOCC1` was run?
**A.** 419 pM

**Q.** `COC(=O)NC(C(=O)N1CC2(CC2)C[C@H]1c1ncc(-c2ccc3cc(-c4ccc(-c5cnc([C@@H]6[C@H]7CC[C@H](C7)N6C(=O)[C@@H](NC(=O)OC)C(C)C)[nH]5)cc4)ccc3c2)[nH]1)c1ccccc1` (some centres unmarked) was tested. Which EC50 did it give?
**A.** 14.5 pM

**Q.** `COC(=O)N[C@H](C(=O)N1CCC[C@H]1c1ncc(-c2ccc3cc(-c4ccc5cc(-c6cnc([C@@H]7[C@H]8CC[C@H](C8)N7C(=O)[C@@H](NC(=O)OC)C(C)C)[nH]6)ccc5c4)ccc3c2)[nH]1)C(C)C` was tested. Which EC50 did it give?
**A.** 280 pM
